Assay results taken from patent publication US9708318B2, “Bicyclic heterocycles as FGFR4 inhibitors” (Incyte Corporation, priority 2015, dated 2017).
Where two headings read alike, the source gives them in different places.

Columns and labels:
FGFR2 = FGFR2 (Homo sapiens (Human), UniProt P21802); test: FGFR Enzymatic Assay (FRET peptide phosphorylation), FGFR2; format: biochemical
Protocol: (§1) The inhibitor potency of the exemplified compounds was measured in an enzyme assay that measures peptide phosphorylation using FRET measurements to detect product formation. Inhibitors were serially diluted in DMSO and a volume of 0.5 μL was transferred to the wells of a 384-well plate.
(§2) The enzymes were purchased from Millipore or Invitrogen.
(§3) GraphPad prism3 was used to analyze the data.

FGFR3 enzyme = FGFR3 enzyme (Homo sapiens (Human), UniProt P22607); test: FGFR Enzymatic Assay (FRET peptide phosphorylation), FGFR3; format: biochemical; settings: for FGFR1/FGFR3 IC50 ratio / FGFR4/FGFR3 IC50 ratio: FGFR3 selectivity; for IC50: read-out: FGFR3 IC50
Protocol: as §1, §3

FGFR4 = FGFR4 (Homo sapiens (Human), UniProt P22455); test: FGFR Enzymatic Assay (FRET peptide phosphorylation), FGFR4; format: biochemical; settings: for FGFR1/FGFR4 IC50 ratio / FGFR2/FGFR4 IC50 ratio / FGFR3/FGFR4 IC50 ratio: FGFR4 selectivity
Protocol: as §1, §2, §3

FGFR1 = FGFR1 (Homo sapiens (Human), UniProt P11362); test: FGFR Enzymatic Assay (FRET peptide phosphorylation), FGFR1
[1] = FGFR1 IC50 (nM), pre-incubated for 4 hours
[2] = pre-incubated for 5 to 10 minutes
[3] = read-out: FGFR1 IC50, pre-incubated for 5 to 10 minutes
[4] = read-out: FGFR1 IC50, pre-incubated for 4 hours
[5] = FGFR1 IC50 (nM), pre-incubated for 5 to 10 minutes

Sequence of FGFR3 enzyme (P22607 23-806): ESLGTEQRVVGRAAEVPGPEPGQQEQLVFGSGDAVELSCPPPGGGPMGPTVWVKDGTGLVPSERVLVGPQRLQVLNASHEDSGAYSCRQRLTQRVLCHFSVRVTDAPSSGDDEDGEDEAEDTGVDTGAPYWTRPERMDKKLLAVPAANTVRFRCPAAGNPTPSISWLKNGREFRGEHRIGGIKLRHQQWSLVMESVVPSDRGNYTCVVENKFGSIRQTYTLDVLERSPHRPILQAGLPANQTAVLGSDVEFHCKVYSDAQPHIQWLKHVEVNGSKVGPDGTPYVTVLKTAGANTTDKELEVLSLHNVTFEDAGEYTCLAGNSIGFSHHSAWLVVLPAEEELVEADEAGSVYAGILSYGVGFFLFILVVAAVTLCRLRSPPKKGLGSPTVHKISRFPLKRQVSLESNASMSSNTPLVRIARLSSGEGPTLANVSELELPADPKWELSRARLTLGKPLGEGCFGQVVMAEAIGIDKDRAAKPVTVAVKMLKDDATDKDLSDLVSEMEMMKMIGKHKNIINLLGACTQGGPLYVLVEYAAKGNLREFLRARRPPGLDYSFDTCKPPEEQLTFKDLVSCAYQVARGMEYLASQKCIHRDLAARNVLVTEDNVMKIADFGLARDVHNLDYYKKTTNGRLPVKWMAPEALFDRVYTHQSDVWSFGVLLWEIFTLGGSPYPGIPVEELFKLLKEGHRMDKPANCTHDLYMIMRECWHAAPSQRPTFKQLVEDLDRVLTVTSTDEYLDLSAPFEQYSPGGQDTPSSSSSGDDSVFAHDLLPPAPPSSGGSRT
Sequence of FGFR4 (P22455 22-802): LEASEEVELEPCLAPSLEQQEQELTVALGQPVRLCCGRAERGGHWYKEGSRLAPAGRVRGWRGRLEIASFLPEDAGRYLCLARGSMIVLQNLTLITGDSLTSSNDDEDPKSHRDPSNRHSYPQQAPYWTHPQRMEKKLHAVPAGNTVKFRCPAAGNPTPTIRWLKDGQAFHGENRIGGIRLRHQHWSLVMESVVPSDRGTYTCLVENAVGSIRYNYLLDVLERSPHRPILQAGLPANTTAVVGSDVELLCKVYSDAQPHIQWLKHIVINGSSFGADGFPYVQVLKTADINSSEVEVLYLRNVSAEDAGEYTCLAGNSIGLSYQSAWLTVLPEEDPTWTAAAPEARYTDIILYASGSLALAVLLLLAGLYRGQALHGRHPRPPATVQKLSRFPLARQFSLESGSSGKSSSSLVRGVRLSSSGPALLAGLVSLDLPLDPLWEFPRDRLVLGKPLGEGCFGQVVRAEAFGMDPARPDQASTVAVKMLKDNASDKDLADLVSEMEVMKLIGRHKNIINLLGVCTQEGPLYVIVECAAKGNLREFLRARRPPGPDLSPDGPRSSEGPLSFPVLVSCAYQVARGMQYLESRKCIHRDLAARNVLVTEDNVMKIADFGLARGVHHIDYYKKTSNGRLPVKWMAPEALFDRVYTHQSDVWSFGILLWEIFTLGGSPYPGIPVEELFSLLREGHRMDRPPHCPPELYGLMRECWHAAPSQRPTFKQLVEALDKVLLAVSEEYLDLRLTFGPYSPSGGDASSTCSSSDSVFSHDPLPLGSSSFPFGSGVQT
Sequence of FGFR1 (P11362 22-822): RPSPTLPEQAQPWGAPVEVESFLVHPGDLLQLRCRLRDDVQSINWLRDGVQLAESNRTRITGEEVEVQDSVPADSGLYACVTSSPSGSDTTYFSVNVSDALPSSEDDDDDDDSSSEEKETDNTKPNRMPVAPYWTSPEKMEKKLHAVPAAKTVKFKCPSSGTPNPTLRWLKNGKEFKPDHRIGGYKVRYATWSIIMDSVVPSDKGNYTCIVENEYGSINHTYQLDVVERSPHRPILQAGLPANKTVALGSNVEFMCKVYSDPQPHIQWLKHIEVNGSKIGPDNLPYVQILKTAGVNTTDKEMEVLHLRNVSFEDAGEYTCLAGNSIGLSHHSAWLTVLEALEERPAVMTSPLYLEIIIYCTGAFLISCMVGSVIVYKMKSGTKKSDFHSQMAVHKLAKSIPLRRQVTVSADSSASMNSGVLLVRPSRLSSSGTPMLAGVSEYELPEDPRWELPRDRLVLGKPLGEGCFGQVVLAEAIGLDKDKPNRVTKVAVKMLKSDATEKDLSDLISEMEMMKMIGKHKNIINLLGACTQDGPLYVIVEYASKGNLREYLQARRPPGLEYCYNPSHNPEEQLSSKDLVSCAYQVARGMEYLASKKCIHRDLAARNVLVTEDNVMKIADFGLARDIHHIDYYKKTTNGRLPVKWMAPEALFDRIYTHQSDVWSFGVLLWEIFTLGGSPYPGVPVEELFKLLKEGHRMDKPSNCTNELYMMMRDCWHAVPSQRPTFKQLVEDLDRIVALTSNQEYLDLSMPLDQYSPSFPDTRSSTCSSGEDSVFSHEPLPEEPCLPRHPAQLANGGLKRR
Sequence of FGFR2 (P21802 22-821): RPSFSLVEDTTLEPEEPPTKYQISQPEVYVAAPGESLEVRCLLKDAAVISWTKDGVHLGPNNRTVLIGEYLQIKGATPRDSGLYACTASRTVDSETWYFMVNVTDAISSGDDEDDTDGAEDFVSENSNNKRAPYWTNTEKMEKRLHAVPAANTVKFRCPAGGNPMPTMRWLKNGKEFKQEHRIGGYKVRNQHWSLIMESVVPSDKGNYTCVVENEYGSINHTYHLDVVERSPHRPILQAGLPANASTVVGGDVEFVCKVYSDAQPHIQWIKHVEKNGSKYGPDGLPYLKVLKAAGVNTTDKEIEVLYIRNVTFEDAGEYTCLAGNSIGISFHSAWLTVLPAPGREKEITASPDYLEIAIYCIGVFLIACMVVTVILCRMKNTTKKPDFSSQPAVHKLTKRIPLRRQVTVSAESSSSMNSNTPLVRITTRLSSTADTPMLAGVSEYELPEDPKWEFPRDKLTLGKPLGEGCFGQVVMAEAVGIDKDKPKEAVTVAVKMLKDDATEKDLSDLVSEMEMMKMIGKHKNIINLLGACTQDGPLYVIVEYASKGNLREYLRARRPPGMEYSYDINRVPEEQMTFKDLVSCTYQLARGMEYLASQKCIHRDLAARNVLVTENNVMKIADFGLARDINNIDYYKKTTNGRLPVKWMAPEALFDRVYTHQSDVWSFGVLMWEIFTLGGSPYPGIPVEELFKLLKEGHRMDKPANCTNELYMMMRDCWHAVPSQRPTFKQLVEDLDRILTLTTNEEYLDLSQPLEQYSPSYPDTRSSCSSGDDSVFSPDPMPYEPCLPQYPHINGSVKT

Row | SMILES | IC50 (FGFR2; pre-incubated for 4 hours) | FGFR1/FGFR3 IC50 ratio (FGFR3 enzyme; pre-incubated for 4 hours) | FGFR4/FGFR3 IC50 ratio (FGFR3 enzyme; pre-incubated for 4 hours) | IC50 (FGFR3 enzyme; pre-incubated for 4 hours) | IC50 (FGFR4; pre-incubated for 4 hours) | IC50 (FGFR1; [1]) | other results
1 | COc1cc(OC)c(F)c(N2Cc3cnc(-c4cncc(S(=O)(=O)N5CCOCC5)c4)cc3C3(CC3)C2=O)c1F [Example 14, 2′-(2,6-difluoro-3,5-dimethoxyphenyl)-6′-(5-(morpholinosulfonyl)pyridin-3-yl)-1′H-spiro[cyclopropane-1,4′-[2,7]naphthyridin]-3′(2′H)-one] | 30 to 200 nM | >5 | – | 30 to 200 nM | < 10 nM | – | IC50 (FGFR2; [2]): 30 to 200 nM; IC50 (FGFR3 enzyme; [2]): 10 to 30 nM; FGFR1/FGFR4 IC50 ratio (FGFR4; [2]): >25; FGFR2/FGFR4 IC50 ratio (FGFR4; [2]): >5; FGFR3/FGFR4 IC50 ratio (FGFR4; [2]): >5; FGFR1/FGFR4 IC50 ratio (FGFR4; pre-incubated for 4 hours): >50; FGFR2/FGFR4 IC50 ratio (FGFR4; pre-incubated for 4 hours): >10; FGFR3/FGFR4 IC50 ratio (FGFR4; pre-incubated for 4 hours): >1; IC50 (FGFR4; [2]): < 10 nM; IC50 (FGFR1; [3]): > 200 nM; IC50 (FGFR1; [4]): > 200 nM
2 | COc1cc(OC)c(F)c(N2Cc3cnc(-c4cn(C)nc4C)cc3N(Cc3ccnc(C)n3)C2=O)c1F [Example 121, 3-(2,6-difluoro-3,5-dimethoxyphenyl)-7-(1,3-dimethyl-1H-pyrazol-4-yl)-1-((2-methylpyrimidin-4-yl)methyl)-3,4-dihydropyrido[4,3-d]pyrimidin-2(1H)-one] | – | – | – | – | – | – | IC50 (FGFR2; [2]): < 10 nM; IC50 (FGFR3 enzyme; [2]): < 10 nM; IC50 (FGFR4; [2]): 30 to 200 nM; IC50 (FGFR1; [5]): 10 to 30 nM
3 | COc1cc(OC)c(F)c(N2Cc3cnc(-c4cn(C)nc4C)cc3N(c3cncnc3)C2=O)c1F [Example 61, 3-(2,6-difluoro-3,5-dimethoxyphenyl)-7-(1,3-dimethyl-1H-pyrazol-4-yl)-1-(pyrimidin-5-yl)-3,4-dihydropyrido[4,3-d]pyrimidin-2(1H)-one] | 30 to 200 nM | >10 | >5 | 10 to 30 nM | > 200 nM | – | IC50 (FGFR1; [4]): > 200 nM
4 | COc1cc(OC)c(F)c(N2Cc3cnc(-c4cc(N)ccc4C)cc3C3(CC3)C2=O)c1F [Example 1, 6′-(5-amino-2-methylphenyl)-2′-(2,6-difluoro-3,5-dimethoxyphenyl)-1′H-spiro[cyclopropane-1,4′-[2,7]naphthyridin]-3′(2′H)-one] | > 200 nM | – | – | – | 30 to 200 nM | – | IC50 (FGFR2; [2]): > 200 nM; IC50 (FGFR3 enzyme): > 200 nM; FGFR1/FGFR4 IC50 ratio (FGFR4; [2]): >25; FGFR2/FGFR4 IC50 ratio (FGFR4; [2]): >25; FGFR3/FGFR4 IC50 ratio (FGFR4; [2]): >50; FGFR1/FGFR4 IC50 ratio (FGFR4; pre-incubated for 4 hours): >25; FGFR2/FGFR4 IC50 ratio (FGFR4; pre-incubated for 4 hours): >25; FGFR3/FGFR4 IC50 ratio (FGFR4; pre-incubated for 4 hours): >25; IC50 (FGFR4; [2]): 30 to 200 nM; IC50 (FGFR1; [3]): > 200 nM; IC50 (FGFR1; [4]): > 200 nM
5 | COc1cc(OC)c(F)c(N2Cc3cnc(-c4cn(C)nc4C)cc3N(Cc3cnccn3)C2=O)c1F [Example 85, 3-(2,6-difluoro-3,5-dimethoxyphenyl)-7-(1,3-dimethyl-1H-pyrazol-4-yl)-1-(pyrazin-2-ylmethyl)-3,4-dihydropyrido[4,3-d]pyrimidin-2(1H)-one] | 10 to 30 nM | >5 | >10 | < 10 nM | 30 to 200 nM | 30 to 200 nM | –
6 | COc1cc(OC)c(F)c(N2Cc3cnc(-c4cn(C)nc4C)cc3N(c3ccc(C#N)cc3)C2=O)c1F [Example 44, 4-(3-(2,6-difluoro-3,5-dimethoxyphenyl)-7-(1,3-dimethyl-1H-pyrazol-4-yl)-2-oxo-3,4-dihydropyrido[4,3-d]pyrimidin-1(2H)-yl)benzonitrile] | 10 to 30 nM | >10 | >10 | < 10 nM | 30 to 200 nM | 30 to 200 nM | –
7 | COc1cc(OC)c(F)c(N2Cc3cnc(-c4cn(C)nc4C)cc3N(Cc3cncnc3)C2=O)c1F [Example 84, 3-(2,6-difluoro-3,5-dimethoxyphenyl)-7-(1,3-dimethyl-1H-pyrazol-4-yl)-1-(pyrimidin-5-ylmethyl)-3,4-dihydropyrido[4,3-d]pyrimidin-2(1H)-one] | < 10 nM | >5 | >5 | < 10 nM | 30 to 200 nM | 30 to 200 nM | –
8 | COc1cc(OC)c(F)c(N2Cc3cnc(-c4ccc(C5(C#N)CCC5)nc4)cc3N(c3cccnc3)C2=O)c1F [Example 138, 1-(5-(3-(2,6-difluoro-3,5-dimethoxyphenyl)-2-oxo-1-(pyridin-3-yl)-1,2,3,4-tetrahydropyrido[4,3-d]pyrimidin-7-yl)pyridin-2-yl)cyclobutanecarbonitrile] | – | – | – | – | – | – | IC50 (FGFR2; [2]): 10 to 30 nM; IC50 (FGFR3 enzyme; [2]): 10 to 30 nM; IC50 (FGFR4; [2]): 30 to 200 nM; IC50 (FGFR1; [5]): 30 to 200 nM
9 | COc1cc(OC)c(F)c(N2Cc3cnc(-c4cn(C)nc4C)cc3N(c3cnn(C4CC4)c3)C2=O)c1F [Example 130, 1-(1-cyclopropyl-1H-pyrazol-4-yl)-3-(2,6-difluoro-3,5-dimethoxyphenyl)-7-(1,3-dimethyl-1H-pyrazol-4-yl)-3,4-dihydropyrido[4,3-d]pyrimidin-2(1H)-one] | 10 to 30 nM | >5 | >5 | 10 to 30 nM | 30 to 200 nM | 30 to 200 nM | –

More lines, main results first:

Row | IC50 (FGFR2; pre-incubated for 4 hours) | FGFR1/FGFR3 IC50 ratio (FGFR3 enzyme; pre-incubated for 4 hours) | FGFR4/FGFR3 IC50 ratio (FGFR3 enzyme; pre-incubated for 4 hours) | IC50 (FGFR3 enzyme; pre-incubated for 4 hours) | IC50 (FGFR4; pre-incubated for 4 hours) | IC50 (FGFR1; [1]) | SMILES | other results
10 | < 10 nM | >1 | >5 | < 10 nM | 10 to 30 nM | 10 to 30 nM | COc1cc(OC)c(F)c(N2Cc3cnc(-c4cn(C)nc4C)cc3N(CC3CC3)C2=O)c1F [Example 29, 1-(cyclopropylmethyl)-3-(2,6-difluoro-3,5-dimethoxyphenyl)-7-(1,3-dimethyl-1H-pyrazol-4-yl)-3,4-dihydropyrido[4,3-d]pyrimidin-2(1H)-one] | –
11 | 10 to 30 nM | >5 | >3 | < 10 nM | 30 to 200 nM | 30 to 200 nM | COc1cc(OC)c(F)c(N2Cc3cnc(-c4cn(C)nc4C)cc3N(c3cc(F)cc(C#N)c3)C2=O)c1F [Example 78, 3-(3-(2,6-difluoro-3,5-dimethoxyphenyl)-7-(1,3-dimethyl-1H-pyrazol-4-yl)-2-oxo-3,4-dihydropyrido[4,3-d]pyrimidin-1(2H)-yl)-5-fluorobenzonitrile] | –
12 | 10 to 30 nM | >10 | >3 | < 10 nM | 10 to 30 nM | 30 to 200 nM | COc1cc(OC)c(F)c(N2Cc3cnc(-c4cnn(CCC5CCN(S(C)(=O)=O)CC5)c4)cc3C3(CC3)C2=O)c1F [Example 148, 2′-(2,6-difluoro-3,5-dimethoxyphenyl)-6′-(1-(2-(1-(methylsulfonyl)piperidin-4-yl)ethyl)-1H-pyrazol-4-yl)-1′H-spiro[cyclopropane-1,4′-[2,7]naphthyridin]-3′(2′H)-one] | –
13 | < 10 nM | >5 | >5 | < 10 nM | 10 to 30 nM | 10 to 30 nM | COc1cc(OC)c(F)c(N2Cc3cnc(-c4csc(N(C)C)n4)cc3C3(CC3)C2=O)c1F [Example 160, 2′-(2,6-difluoro-3,5-dimethoxyphenyl)-6′-(2-(dimethylamino)thiazol-4-yl)-1′H-spiro[cyclopropane-1,4′-[2,7]naphthyridin]-3′(2′H)-one] | –
14 | < 10 nM | >5 | >5 | < 10 nM | 30 to 200 nM | 30 to 200 nM | COc1cc(OC)c(F)c(N2Cc3cnc(-c4cn(C)nc4C)cc3N(C3(C#N)CC3)C2=O)c1F [Example 91, 1-(3-(2,6-difluoro-3,5-dimethoxyphenyl)-7-(1,3-dimethyl-1H-pyrazol-4-yl)-2-oxo-3,4-dihydropyrido[4,3-d]pyrimidin-1(2H)-yl)cyclopropanecarbonitrile] | –
15 | 10 to 30 nM | >5 | – | 10 to 30 nM | 10 to 30 nM | 30 to 200 nM | COc1cc(OC)c(F)c(N2Cc3cnc(-c4ccc(C#N)nc4)cc3C3(CC3)C2=O)c1F [Example 20, 5-(2′-(2,6-difluoro-3,5-dimethoxyphenyl)-3′-oxo-2′,3′-dihydro-1′H-spiro[cyclopropane-1,4′-[2,7]naphthyridine]-6′-yl)picolinonitrile] | –
16 | < 10 nM | >5 | >5 | < 10 nM | 10 to 30 nM | 10 to 30 nM | CCN1C(=O)N(c2c(F)c(OC)cc(OC)c2F)Cc2cnc(-c3ccc(CN4CC[C@H](C#N)C4)cc3)cc21 [Example 25, (S)-1-(4-(3-(2,6-difluoro-3,5-dimethoxyphenyl)-1-ethyl-2-oxo-1,2,3,4-tetrahydropyrido[4,3-d]pyrimidin-7-yl)benzyl)pyrrolidine-3-carbonitrile] | –
17 | < 10 nM | >5 | >1 | < 10 nM | < 10 nM | 10 to 30 nM | COc1cc(OC)c(F)c(N2Cc3cnc(-c4cnn(CC5CCCS(=O)(=O)N5)c4)cc3C3(CC3)C2=O)c1F (centres unmarked) [Example 162, 2′-(2,6-difluoro-3,5-dimethoxyphenyl)-6′-{1-[(1,1-dioxido-1,2-thiazinan-3-yl)methyl]-1H-pyrazol-4-yl}-1′H-spiro[cyclopropane-1,4′-[2,7]naphthyridin]-3′(2′H)-one] | –
18 | 10 to 30 nM | >5 | >3 | 10 to 30 nM | 30 to 200 nM | 30 to 200 nM | COc1cc(OC)c(F)c(N2Cc3cnc(-c4cn(CC(=O)N5CCOCC5)nc4C)cc3C3(CC3)C2=O)c1F [Example 159, 2′-(2,6-difluoro-3,5-dimethoxyphenyl)-6′-(3-methyl-1-(2-morpholino-2-oxoethyl)-1H-pyrazol-4-yl)-1′H-spiro[cyclopropane-1,4′-[2,7]naphthyridin]-3′(2′H)-one] | –
